We go through two molecules from article PMC7484342 (Journal of molecular biology, 2020).

Each structure is given as a SMILES string.

Assay [1] deals with T1, purified hVKORL (Homo sapiens, UniProt Q8N0U8).
T1 sequence (Q8N0U8 1-176): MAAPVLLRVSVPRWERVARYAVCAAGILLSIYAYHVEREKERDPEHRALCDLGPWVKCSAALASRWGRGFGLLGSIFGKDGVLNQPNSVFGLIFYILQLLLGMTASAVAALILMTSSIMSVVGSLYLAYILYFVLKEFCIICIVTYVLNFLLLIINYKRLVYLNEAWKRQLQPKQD
The assay can be described thus: Fluorometric activity assay of purified hVKORL. Conditions: IC50, purified and analyzed in LMNG, GSH, 250 nM enzyme, KO as substrate. It counts as biochemical.

In assay [2] the target is T2, Takifugu rubripes VKOR-like (TrVKORL) (Takifugu rubripes, UniProt Q6TEK8).
T2 sequence (Q6TEK8 1-175): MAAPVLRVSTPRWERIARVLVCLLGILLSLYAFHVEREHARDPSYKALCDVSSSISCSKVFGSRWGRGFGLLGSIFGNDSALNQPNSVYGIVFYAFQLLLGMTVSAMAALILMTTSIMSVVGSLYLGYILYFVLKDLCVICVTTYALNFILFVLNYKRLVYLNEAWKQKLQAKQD
The assay can be described thus: Cell-based activity assay.

For assay [3], the target named is T3, hVKORL (Homo sapiens, UniProt Q8N0U8).
T3 sequence (Q8N0U8 1-176): T1 sequence (Q8N0U8 1-176)
The assay can be described thus: Cell-based activity assay.

For assay [4], the target named is T4, purified TrVKORL (Takifugu rubripes, UniProt Q6TEK8).
T4 sequence (Q6TEK8 1-175): T2 sequence (Q6TEK8 1-175)
The assay can be described thus: Fluorometric activity assay of purified TrVKORL. It counts as biochemical.

Assay [5] concerns the target purified complex of hVKOR and warfarin (Homo sapiens, UniProt Q9BQB6). Conditions: DTT as reductant.

Sequence of purified complex of hVKOR and warfarin (Q9BQB6 whole entry, one chain of several): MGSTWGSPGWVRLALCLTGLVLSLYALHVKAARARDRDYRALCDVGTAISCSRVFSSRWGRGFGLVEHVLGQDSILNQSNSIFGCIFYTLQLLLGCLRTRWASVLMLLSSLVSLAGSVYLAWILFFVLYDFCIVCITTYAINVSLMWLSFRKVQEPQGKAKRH

As to `CC(=O)CC(c1ccccc1)c1c(O)c2ccccc2oc1=O` (centres unmarked) [warfarin], the 50% inhibitory concentration (IC50) – broadly, the concentration that gives 50% inhibition – in assay [1] was 120 nM; in assay [2], 97 nM; in assay [3] it was 238 nM; in assay [4] (IC50 of warfarin, in presence of GSH, enzyme concentration 500 nM, KO or K) it was 250 to 260 nM; in assay [4] (apparent IC50, GSH as reductant, 500 nM TrVKORL, K as substrate), approximately 250 nM; in assay [4] (apparent IC50, GSH as reductant, 500 nM TrVKORL, KO as substrate) it was approximately 260 nM. Besides, the half-inhibitory concentration (IC50) was 3800 nM in assay [4] (warfarin IC50, DTT as reductant, 500 nM enzyme, K as substrate) and 4700 nM in assay [4] (warfarin IC50, DTT as reductant, 500 nM enzyme, KO as substrate). Also, in assay [4] (Ki^app estimated from the Morrison equation, GSH, K as substrate, low enzyme concentration), the Ki is 29 nM. In addition, the “warfarin inhibition (in words)” value in assay [5] is on record as “poorly inhibited”.

Take `CC(=CCC12OC1(C)C(=O)c1ccccc1C2=O)CCCC(C)CCCC(C)CCCC(C)C` (centres unmarked) [KO, vitamin K epoxide]: the “decrease of KM with GSH reduction compared to DTT reduction” value in assay [4] (TrVKORL, KO as substrate) stood at 3.4 fold.
